Reference: ChEMBL document CHEMBL3997765 (Medchemcomm, 2016)
Activity calls are given as the source filed them. The calls are words filed in the database; no cut-off is given here.

Each molecule was assayed against T1, Mitogen-activated protein kinase 14 (Homo sapiens, UniProt Q16539) (assay: Inhibition of p38alpha phosphorylation in human MM1S cells after 3 hrs by western blot analysis).
T1 sequence (Q16539 whole entry): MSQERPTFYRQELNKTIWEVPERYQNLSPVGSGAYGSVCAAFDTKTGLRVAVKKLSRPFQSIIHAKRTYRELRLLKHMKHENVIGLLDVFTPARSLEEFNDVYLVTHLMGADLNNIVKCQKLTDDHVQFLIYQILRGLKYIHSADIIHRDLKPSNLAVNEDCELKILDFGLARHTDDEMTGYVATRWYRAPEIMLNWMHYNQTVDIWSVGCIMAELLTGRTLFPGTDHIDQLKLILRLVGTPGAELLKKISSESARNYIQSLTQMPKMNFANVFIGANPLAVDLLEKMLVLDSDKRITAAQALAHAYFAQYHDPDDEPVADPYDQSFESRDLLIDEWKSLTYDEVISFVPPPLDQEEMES
Type: cell-based
For `Cc1ccc(C2=Nc3c(ncnc3S(=O)(=O)c3ccc(C)cc3)[S+]([O-])c3ccc(C)cc32)cc1` (stereo unspecified), the inhibition was “Dose-dependent effect”.

These molecules were tested against T1, Mitogen-activated protein kinase 14 (assay: Inhibition of p38alpha phosphorylation in human U266 cells at 10 uM after 3 hrs by western blot analysis).
Type: cell-based
For `Cc1ccc(C2=Nc3c(ncnc3S(=O)(=O)c3ccc(C)cc3)[S+]([O-])c3ccc(C)cc32)cc1` (stereo unspecified), the inhibition was “Active”.

These molecules were tested against T1, Mitogen-activated protein kinase 14 (assay: Inhibition of full length recombinant human GST-tagged p38alpha expressed in Escherichia coli by Z'-Lyte assay).
`Cc1ccc(C2=Nc3c(ncnc3S(=O)(=O)c3ccc(C)cc3)[S+]([O-])c3ccc(C)cc32)cc1` (stereo unspecified) showed an IC50 of 42.7 nM.
`CCCC1=Nc2c(ncnc2[S+]([O-])c2ccccc2)Sc2ccccc21` (stereo unspecified) showed an IC50 of 969 nM.
`[O-][S+](c1ccc(Cl)cc1)c1ncnc2c1N=C(c1ccccc1)c1cc(Cl)ccc1S2` (stereo unspecified) gave an IC50 of 855 nM.
In the case of `c1ccc(Sc2ncnc3c2N=C(c2cccnc2)c2ccccc2S3)cc1`, the IC50 is reported as 1250 nM.

What follows are molecules tested against T1, Mitogen-activated protein kinase 14 (assay: Inhibition of full length recombinant human GST-tagged p38alpha expressed in Escherichia coli at 10 uM using Ser/Thr04 peptide as substrate in presence of inactive MAPKAPK2 after 1 hr by FRET assay relative to control).
`CCCC1=Nc2c(NCc3ccccc3)ncnc2Sc2ccccc21` gave an inhibition of 5%.
`Cc1ccc(C2=Nc3c(Sc4ccc(Cl)cc4)ncnc3Sc3ccc(Cl)cc32)cc1` was tested, and the inhibition was 4%.
Molecule `c1ccc(C2=Nc3c(ncnc3N3CCCC3)Sc3ccccc32)cc1` has an inhibition of -4%.
`Cc1ccc(C2=Nc3c(ncnc3[S+]([O-])c3ccc(Cl)cc3)Sc3ccc(Cl)cc32)cc1` (stereo unspecified) gave an inhibition of 99%.
For `Cc1ccc2c(c1)C(c1ccc(F)cc1)=Nc1c(N)ncnc1S2`, the inhibition was 4%.
Molecule `O=[N+]([O-])c1ccccc1C1=Nc2c(Sc3ccccc3)ncnc2Sc2ccccc21` has an inhibition of 63%.
Molecule `Cc1ccc(C2=Nc3c(ncnc3S(=O)(=O)c3ccc(C)cc3)[S+]([O-])c3ccc(C)cc32)cc1` (stereo unspecified) has an inhibition of 100%.
With `Cc1ccc2c(c1)C(Cc1ccccc1)=Nc1c(NCc3ccccc3)ncnc1S2` the inhibition was 19%.
`Cc1ccc2c(c1)C(c1ccc(F)cc1)=Nc1c(NCCO)ncnc1S2` gave an inhibition of -3%.
For `Cc1ccc(C2=Nc3c(NC4CCCCC4)ncnc3Sc3ccc(Cl)cc32)cc1`, the inhibition was 11%.
For `COc1ccc(Sc2ncnc3c2N=C(Cc2ccccc2)c2cc(OC)ccc2S3)cc1`, the inhibition was 10%.
`Cc1ccc2c(c1)C(c1cccnc1)=Nc1c(NCc3ccccc3)ncnc1S2` was tested, and the inhibition was 18%.
In the case of `c1ccc(CC2=Nc3c(Sc4ccccc4)ncnc3Sc3ccccc32)cc1`, the inhibition is reported as 9%.
In the case of `Fc1ccc(C2=Nc3c(Sc4ccccc4)ncnc3Sc3ccccc32)cc1`, the inhibition is reported as 7%.
`COc1ccc(Sc2ncnc3c2N=C(c2ccc(C)cc2)c2cc(OC)ccc2S3)cc1` gave an inhibition of 30%.
In the case of `CCCC1=Nc2c(ncnc2[S+]([O-])c2ccccc2)Sc2ccccc21` (stereo unspecified), the inhibition is reported as 73%.
Molecule `CCCC1=Nc2c(Sc3ccccc3)ncnc2Sc2ccccc21` has an inhibition of 11%.
With `Cc1ccc(Sc2ncnc3c2N=C(c2ccccc2)c2cc(C)ccc2S3)cc1` the inhibition was 12%.
`c1ccc(Sc2ncnc3c2N=C(c2ccccc2)c2ccccc2S3)cc1` gave an inhibition of 18%.
Molecule `Cc1ccc(C2=Nc3c(ncnc3[S+]([O-])c3ccc(C)cc3)Sc3ccc(C)cc32)cc1` (stereo unspecified) has an inhibition of 88%.
`Cc1ccc(Sc2ncnc3c2N=C(c2ccc(F)cc2)c2cc(C)ccc2S3)cc1` showed an inhibition of 0%.
`Cc1ccc([S+]([O-])c2ncnc3c2N=C(c2ccccc2)c2cc(C)ccc2S3)cc1` (stereo unspecified) showed an inhibition of 95%.
For `[O-][S+](c1ccc(Cl)cc1)c1ncnc2c1N=C(c1ccccc1)c1cc(Cl)ccc1S2` (stereo unspecified), the inhibition was 98%.
In the case of `CCCCNc1ncnc2c1N=C(c1ccccc1)c1cc(C)ccc1S2`, the inhibition is reported as -4%.
`Cc1ccc(Sc2ncnc3c2N=C(Cc2ccccc2)c2cc(C)ccc2S3)cc1` showed an inhibition of 1%.
In the case of `Cc1ccc(C2=Nc3c(NCc4ccccc4)ncnc3Sc3ccc(Cl)cc32)cc1`, the inhibition is reported as -2%.
With `Cc1ccc(S(=O)(=O)c2ncnc3c2N=C(c2ccccc2)c2cc(C)ccc2[S+]3[O-])cc1` (stereo unspecified) the inhibition was 100%.
For `Cc1ccc([S+]([O-])c2ncnc3c2N=C(c2cccnc2)c2cc(C)ccc2S3)cc1` (stereo unspecified), the inhibition was 100%.
In the case of `Clc1ccc(Sc2ncnc3c2N=C(Cc2ccccc2)c2cc(Cl)ccc2S3)cc1`, the inhibition is reported as 0%.
With `CCCC1=Nc2c(Sc3ccc(C)cc3)ncnc2Sc2ccc(C)cc21` the inhibition was 16%.
`Cc1ccc(Sc2ncnc3c2N=C(c2cccnc2)c2cc(C)ccc2S3)cc1` was tested, and the inhibition was 4%.
`Cc1ccc2c(c1)C(Cc1ccccc1)=Nc1c(NC3CCCCC3)ncnc1S2` showed an inhibition of 29%.
In the case of `CCCCNc1ncnc2c1N=C(c1ccccc1)c1cc(Cl)ccc1S2`, the inhibition is reported as -6%.
With `Clc1ccc(Sc2ncnc3c2N=C(c2ccccc2)c2cc(Cl)ccc2S3)cc1` the inhibition was 3%.
In the case of `c1ccc(Sc2ncnc3c2N=C(c2cccnc2)c2ccccc2S3)cc1`, the inhibition is reported as 98%.
